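48-hour exposure; five concentrations; linearly interpolated endpoints. Abbreviation: GI50, concentration required for 50% inhibition of growth.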 Active and inactive are the calls of the source. No stated cut-off is given here; in the data, active = GI50 up to about 1.1 µM and inactive = higher.
How the values were obtained:
Assay in all cases: NCI anticancer screen, dose series, 48 h
[1] = test system: SK-MEL-28
[2] = test system: 786-0
[3] = test system: SN12C
[4] = test system: SW-620
[5] = test system: A549
[6] = test system: DLD-1
[7] = test system: M19-MEL
[8] = test system: SF-295
[9] = test system: NCI-H460
[10] = test system: DMS-273
[11] = test system: NCI-H226
[12] = test system: MCF7
[13] = test system: DU-145
[14] = test system: XF498
[15] = test system: OVCAR-8
[16] = test system: HOP-62
[17] = test system: CAKI-1
[18] = test system: LOX IMVI
[19] = test system: KM-20L2
[20] = test system: SNB-19
[21] = test system: HL-60
[22] = test system: DMS-114
[23] = test system: EKVX
[24] = test system: LXFL 529
[25] = test system: OVCAR-3
[26] = test system: NCI/ADR-RES
[27] = test system: HCT-15
[28] = test system: U-251
[29] = test system: SF-539
[30] = test system: COLO 205
[31] = test system: HOP-92
[32] = test system: K562
[33] = test system: M14
[34] = test system: CCRF-CEM
[35] = test system: UACC-62
[36] = test system: T47D
[37] = test system: SK-OV-3
[38] = test system: SF-268
[39] = test system: HOP-18
[40] = test system: Malme-3M
[41] = test system: MDA-N
[42] = test system: BT-549
[43] = test system: HCC 2998
[44] = test system: SNB-78
[45] = test system: A498
[46] = test system: HCT-116
[47] = test system: NCI-H23
[48] = test system: KM12
[49] = test system: SK-MEL-2
[50] = test system: MOLT-4
[51] = test system: TK-10
[52] = test system: NCI-H522
[53] = test system: UO-31
[54] = test system: RXF 393
[55] = test system: IGROV-1
[56] = test system: UACC-257
[57] = test system: PC-3
[58] = test system: SK-MEL-5
[59] = test system: ACHN
[60] = test system: RPMI-8226
[61] = test system: MDA-MB-435
[62] = test system: SR
[63] = test system: OVCAR-4
[64] = test system: OVCAR-5
[65] = test system: HT-29
[66] = test system: MDA-MB-231
[67] = test system: SNB-75
[68] = test system: Hs-578T
[69] = test system: RXF 631

Measured: GI50

C[C@]12CC[C@@H]3c4ccc(O)cc4CC[C@H]3[C@@H]1CC[C@@H]2OC(=O)CCC1CCCC1 [ESTRADIOL CYPIONATE]
inactive: [1] 18.2 µM | [2] 16.3 µM | [3] 16.7 µM | [4] 20.9 µM | [5] 17.8 µM | [6] 33 µM | [7] 27.4 µM | [8] 16.7 µM | [9] 18.7 µM | [10] 14.3 µM | [11] 19.1 µM | [12] 17.1 µM | [13] 13.7 µM | [14] 18.9 µM | [15] 16.7 µM | [16] 18.8 µM | [17] 19.1 µM | [18] 18 µM | [19] 17.7 µM | [20] 16.9 µM | [21] 17.8 µM | [22] 30.8 µM | [23] 7.45 µM | [24] 17.5 µM | [25] 16.4 µM | [26] 16.5 µM | [28] 18.7 µM | [29] 18.8 µM | [30] 19.1 µM | [31] 23.1 µM | [32] 17.2 µM | [33] 20.1 µM | [34] 17.8 µM | [35] 14.4 µM | [36] 14.2 µM | [37] 19.4 µM | [38] 21.8 µM | [39] 20.3 µM | [40] 26.9 µM | [41] 6.85 µM | [42] 17.7 µM | [43] 19.8 µM | [44] 56.9 µM | [45] 20.3 µM | [46] 17.3 µM | [47] 17.7 µM | [48] 26.8 µM | [49] 23.2 µM | [50] 17.8 µM | [51] 23.4 µM | [52] 17.1 µM | [53] 18.4 µM | [54] 10.4 µM | [55] 17.6 µM | [56] 35 µM | [57] 16.6 µM | [58] 17.5 µM | [59] 23.8 µM | [60] 18.5 µM | [61] 10 µM | [62] 17.8 µM | [63] 17.5 µM | [64] 26.2 µM | [65] 17.9 µM | [66] 17.5 µM
16.2 µM: [27]

CC1=C2C(=O)[C@H]3[C@@H](CC=C4C[C@@H](O)CC[C@@]43C)[C@@H]2CC[C@]12O[C@@H]1C[C@H](C)CN[C@H]1[C@H]2C [JERVINE]
inactive: [1] > 49.3 µM | [2] > 41.9 µM | [3] > 43.4 µM | [4] > 49.4 µM | [67] > 36.4 µM | [5] > 43 µM | [6] 29.9 µM | [7] 29.4 µM | [8] > 44.1 µM | [68] > 100 µM | [9] > 44.8 µM | [10] 22 µM | [11] > 43.8 µM | [12] > 100 µM | [13] > 100 µM | [15] > 47.1 µM | [16] > 39.5 µM | [17] > 40.8 µM | [18] > 41.1 µM | [19] 28.9 µM | [20] > 41.7 µM | [21] > 44.2 µM | [22] 18.9 µM | [23] > 45.9 µM | [24] 18.4 µM | [25] > 40.6 µM | [26] > 100 µM | [28] > 41.4 µM | [29] > 47.9 µM | [30] > 75.5 µM | [31] 11.9 µM | [32] > 61.9 µM | [33] > 41.7 µM | [34] > 63.4 µM | [35] > 53.7 µM | [36] > 100 µM | [37] > 40.6 µM | [38] > 46.6 µM | [39] 17.1 µM | [40] > 50.4 µM | [41] > 100 µM | [42] > 100 µM | [43] > 54 µM | [44] 19.2 µM | [45] > 41.2 µM | [69] 23.2 µM | [46] > 46 µM | [47] > 42.3 µM | [48] > 50.4 µM | [49] > 50.7 µM | [50] > 82.4 µM | [51] > 37.2 µM | [52] > 42.2 µM | [53] > 40.1 µM | [54] > 38.5 µM | [55] > 54.7 µM | [56] > 49.3 µM | [57] > 100 µM | [58] > 39.8 µM | [59] > 41.3 µM | [60] > 100 µM | [61] > 100 µM | [63] > 44.5 µM | [64] > 100 µM | [65] > 55.2 µM | [66] > 100 µM
> 50.8 µM: [27]

Reference: ChEMBL document CHEMBL1201862, “PubChem BioAssay data set” (2004)
